Laboratory results: PubChem BioAssay (NCI)
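The compound was tested at five concentrations on cells cultured in 96-well plates, with a 48-hour exposure period. TGI marks complete inhibition of growth.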

What was measured:
Experiment in all cases: growth of human tumour cells (NCI), 48 h
HCT-15 colon = test system: HCT-15 colon
HCC-2998 colon = test system: HCC-2998 colon
K-562 leukemia = test system: K-562 leukemia
MOLT-4 leukemia = test system: MOLT-4 leukemia
EKVX NSCLC = test system: EKVX NSCLC
IGROV1 ovarian = test system: IGROV1 ovarian
NCI-H23 lung = test system: NCI-H23 lung
A549 NSCLC = test system: A549 NSCLC
MCF7 breast = test system: MCF7 breast
UACC-62 melanoma = test system: UACC-62 melanoma
A498 renal = test system: A498 renal
HOP-92 NSCLC = test system: HOP-92 NSCLC

| Structure (SMILES) | TGI (HCT-15 colon) [µM] | TGI (HCC-2998 colon) [µM] | TGI (K-562 leukemia) [µM] | TGI (MOLT-4 leukemia) [µM] | TGI (EKVX NSCLC) [µM] | TGI (IGROV1 ovarian) [µM] | TGI (NCI-H23 lung) [µM] | TGI (A549 NSCLC) [µM] | TGI (MCF7 breast) [µM] | TGI (UACC-62 melanoma) [µM] | TGI (A498 renal) [µM] | TGI (HOP-92 NSCLC) [µM] |
| --- | --- | --- | --- | --- | --- | --- | --- | --- | --- | --- | --- | --- |
| O=P(O)(Cc1ccccc1)c1ccccc1-c1ccccc1 | > 100 | > 100 | > 100 | > 100 | > 100 | > 100 | > 100 | > 100 | > 100 | > 100 |  |  |
| COc1ccc(C(=O)/C=C/c2ccncc2)cc1OC | 28.7 |  | 6.11 | 86.7 | 30.5 | 26.6 | 22.7 | 29.3 | 13.4 | 30 | 30.9 | 27.6 |
| Nc1nc2c(ncn2Cc2ccc(CO)cc2)c(=O)[nH]1 | > 100 |  | > 100 | > 100 | > 100 | > 100 | > 100 | > 100 | > 100 | > 100 | > 100 | > 100 |
| Cc1ccc(C(=O)N/N=C(\N=Nc2ccccc2[N+](=O)[O-])c2ccc(N(C)C)cc2)cc1 | > 100 | > 100 | > 100 | > 100 | > 100 | > 100 | > 100 | > 100 | > 100 | > 100 |  | > 100 |
| CN(CCN(C)C(=S)NN)C(=S)NN |  | > 100 |  | > 100 | > 100 | > 100 | > 100 | > 100 |  | > 100 |  |  |
| COc1ccc(/C=N/n2c(-c3ccccc3)n[nH]c2=O)cc1 | > 100 | > 100 | > 100 | > 100 | > 100 |  | > 100 | > 100 | > 100 | > 100 | > 100 |  |
| O=C1C[C@H]2[C@@H](O1)[C@@H](O)CN1C(=O)c3ccccc3[C@H]21 | > 100 | > 100 | > 100 | > 100 | > 100 | > 100 | > 100 | > 100 | > 100 | > 100 | > 100 |  |
| CC(C)C[C@H]1[C@@H](OCc2ccccc2)COS(=O)N1[C@H](C)c1ccccc1 (stereo partly specified) | > 100 |  | 35.9 | 51.3 | > 100 | > 100 | > 100 | > 100 |  | > 100 | 87.2 | > 100 |
| CC[C@]1(Cc2ccc(OC)c(OC)c2)[C@@H]2C[C@@H](C3OCCO3)ON2O[C@H](OC2CCCC2(c2ccccc2)c2ccccc2)[C@@H]1OC(C)=O (stereo partly specified) | 30.3 |  | 39.1 | 29 | 44.6 | 50.1 | 43.4 | 79.5 | 41.1 | > 100 |  |  |
| Oc1ccc(-c2nc(-c3ccc(F)cc3)c(-c3ccc4ccccc4n3)[nH]2)cc1 | 23.6 | 15.3 | > 100 | 25.2 | 40.7 | 26.5 | 25.4 | 27 | 18.7 | 23.6 |  |  |
| CC(C)(C)c1cc(C(CO)OCCOCCO)cc(C(C)(C)C)c1O (stereo unspecified) | > 100 |  | > 100 |  | > 100 | > 100 | > 100 | > 100 | > 100 | > 100 | > 100 | > 100 |
| Cn1c(N)c2c3c(sc2nc1=O)CCCC3 | > 75 | > 75 | > 75 | > 75 | > 75 | > 75 | > 75 |  | > 75 | > 75 | > 75 |  |
| CC(C)C1=C(Cc2ccccc2)C(=O)O/C1=C\c1cc(Cl)c(O)c(Cl)c1 | 39.7 | 42.3 | 40.5 | 60.7 | 65.1 | 44.1 | 32.9 | 50.5 | 83.4 | 36 | 53.1 |  |
| Cc1ccc(NC(=S)NNC(=O)c2cc(-c3ccccc3)nc3ccccc23)cc1 | 25.9 | 24.3 | > 100 | 44.3 |  | 36.7 | 27.4 | 26.2 | 31.5 | 30.6 |  | 25.8 |
| CC(=O)Nc1ccc2cc(C)c(=O)[nH]c2n1 | > 100 |  | > 100 | > 100 | > 100 | > 100 | > 100 | > 100 |  | > 100 | > 100 | > 100 |
| O=C(O)c1cccnc1 | > 100 | > 100 | > 100 | > 100 | > 100 | > 100 | > 100 | > 100 | > 100 |  |  | > 100 |
